# Test system: HCT116 colorectal cancer cells
# Assay: Cisplatin sensitization assay (96 h cell viability MTS);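 note: Test-compound concentration that lowers the Cisplatin IC50 by a set fold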
# Type: cell-based
# Conditions: compound and Cisplatin added simultaneously, Cisplatin sensitization value
# Procedure, shortened: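 Compound and cisplatin added together as a full matrix of 2-fold serial dilutions from a top final concentration of 10 μM; cells incubated 96 h at 37° C, 5% CO2. Viability then read by MTS after 1 h further incubation; sensitization value reported in μM bins.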
row,Structure (SMILES),Cisplatin Sensitization Assay
1,"Nc1nn2cc(F)cnc2c1C(=O)Nc1cncc(F)c1N1CCN(C(=O)C2CN3CCC2CC3)CC1 (stereo not drawn) [I-N-130, 2-amino-6-fluoro-N-(5-fluoro-4-(4-(quinuclidine-3-carbonyl)piperazin-1-yl)pyridin-3-yl)pyrazolo[1,5-a]pyrimidine-3-carboxamide]",++ (Cisplatin sensitization value>0.02 μM but <0.2 μM)
2,"Cc1nc(F)ccc1-c1ccncc1NC(=O)c1c(N)nn2cc(F)cnc12 [I-C-34, 2-amino-6-fluoro-N-(6-fluoro-2-methyl-[3,4′-bipyridin]-3′-yl)pyrazolo[1,5-a]pyrimidine-3-carboxamide]",+++ (Cisplatin sensitization value of <0.02 μM)
3,"CN1CCN(c2c(F)cncc2NC(=O)c2c(N)nn3cc(Cl)cnc23)CC1 [I-N-14, 2-amino-6-chloro-N-(5-fluoro-4-(4-methylpiperazin-1-yl)pyridin-3-yl)pyrazolo[1,5-a]pyrimidine-3-carboxamide]",+++ (Cisplatin sensitization value of <0.02 μM)
4,"N#CCc1cnc2c(C(=O)Nc3cnccc3N3CCCCC3)c(N)nn2c1 [I-N-84, 2-amino-6-(cyanomethyl)-N-(4-(piperidin-1-yl)pyridin-3-yl)pyrazolo[1,5-a]pyrimidine-3-carboxamide]",+++ (Cisplatin sensitization value of <0.02 μM)
5,"Nc1nn2cc(F)cnc2c1C(=O)Nc1cnccc1O[C@H]1CN2CCC1CC2 [I-O-5, (R)-2-amino-6-fluoro-N-(4-(quinuclidin-3-yloxy)pyridin-3-yl)pyrazolo[1,5-a]pyrimidine-3-carboxamide]",+++ (Cisplatin sensitization value of <0.02 μM)
6,"Cc1nc(N2CCN(C)CC2)ccc1-c1ccncc1NC(=O)c1c(N)nn2cc(F)cnc12 [I-C-40, 2-amino-6-fluoro-N-(2-methyl-6-(4-methylpiperazin-1-yl)-[3,4′-bipyridin]-3′-yl)pyrazolo[1,5-a]pyrimidine-3-carboxamide]",+++ (Cisplatin sensitization value of <0.02 μM)
7,"Nc1nn2cc(Cl)cnc2c1C(=O)Nc1cnccc1O[C@@H]1CCOC1 [I-O-54, (R)-2-amino-6-chloro-N-(4-((tetrahydrofuran-3-yl)oxy)pyridin-3-yl)pyrazolo[1,5-a]pyrimidine-3-carboxamide]",+++ (Cisplatin sensitization value of <0.02 μM)
8,"Cc1cccnc1-c1ccncc1NC(=O)c1c(N)nn2cc(F)cnc12 [I-C-36, 2-amino-6-fluoro-N-(3-methyl-[2,4′-bipyridin]-3′-yl)pyrazolo[1,5-a]pyrimidine-3-carboxamide]",+++ (Cisplatin sensitization value of <0.02 μM)
9,"Nc1nn2cc(F)cnc2c1C(=O)Nc1cncc(F)c1N1CCN(C(=O)C2CCOC2)CC1 (stereo not drawn) [I-N-274, 2-amino-6-fluoro-N-(5-fluoro-4-(4-(tetrahydrofuran-3-carbonyl)piperazin-1-yl)pyridin-3-yl)pyrazolo[1,5-a]pyrimidine-3-carboxamide]",+++ (Cisplatin sensitization value of <0.02 μM)
10,"CN1CCN(CC2CCN(c3c(F)cncc3NC(=O)c3c(N)nn4cc(C5(C#N)CC5)cnc34)CC2)CC1 [I-N-192, 2-amino-6-(1-cyanocyclopropyl)-N-(5-fluoro-4-(4-((4-methylpiperazin-1-yl)methyl)piperidin-1-yl)pyridin-3-yl)pyrazolo[1,5-a]pyrimidine-3-carboxamide]",+++ (Cisplatin sensitization value of <0.02 μM)
11,"CC(C)N1CCN(c2ccncc2NC(=O)c2c(N)nn3cc(F)cnc23)CC1 [I-N-4, 2-amino-6-fluoro-N-(4-(4-isopropylpiperazin-1-yl)pyridin-3-yl)pyrazolo[1,5-a]pyrimidine-3-carboxamide]",+++ (Cisplatin sensitization value of <0.02 μM)
12,"CN1CCN(c2ccncc2NC(=O)c2c(N)nn3cc(CC#N)cnc23)CC1 [I-N-82, 2-amino-6-(cyanomethyl)-N-(4-(4-methylpiperazin-1-yl)pyridin-3-yl)pyrazolo[1,5-a]pyrimidine-3-carboxamide]",++ (Cisplatin sensitization value>0.02 μM but <0.2 μM)
13,"Nc1nn2cc(F)cnc2c1C(=O)Nc1cnccc1-n1ccnc1 [I-N-7, N-(4-(1H-imidazol-1-yl)pyridin-3-yl)-2-amino-6-fluoropyrazolo[1,5-a]pyrimidine-3-carboxamide]",++ (Cisplatin sensitization value>0.02 μM but <0.2 μM)
14,"Cc1ccnnc1-c1ccncc1NC(=O)c1c(N)nn2cc(F)cnc12 [I-C-33, 2-amino-6-fluoro-N-(4-(4-methylpyridazin-3-yl)pyridin-3-yl)pyrazolo[1,5-a]pyrimidine-3-carboxamide]",+ (Cisplatin sensitization value>0.2 μM but <5 μM)
15,"Nc1nn2cc(Cl)cnc2c1C(=O)Nc1cnccc1OCCO [I-O-66, 2-amino-6-chloro-N-(4-(2-hydroxyethoxy)pyridin-3-yl)pyrazolo[1,5-a]pyrimidine-3-carboxamide]",+ (Cisplatin sensitization value>0.2 μM but <5 μM)
16,"Cc1cncc(NC(=O)c2c(N)nn3cc(F)cnc23)c1N1CCC(C(=O)N2CCNCC2)CC1 [I-G-56, 2-amino-6-fluoro-N-(5-methyl-4-(4-(piperazine-1-carbonyl)piperidin-1-yl)pyridin-3-yl)pyrazolo[1,5-a]pyrimidine-3-carboxamide]",+++ (Cisplatin sensitization value of <0.02 μM)
17,"CCn1cncc1-c1ccncc1NC(=O)c1c(N)nn2cc(F)cnc12 [I-C-80, 2-amino-N-(4-(1-ethyl-1H-imidazol-5-yl)pyridin-3-yl)-6-fluoropyrazolo[1,5-a]pyrimidine-3-carboxamide]",+++ (Cisplatin sensitization value of <0.02 μM)
18,"Nc1nn2cc(F)cnc2c1C(=O)Nc1cncc(F)c1N1CCC(S(=O)(=O)N2CCOCC2)CC1 [I-N-155, 2-amino-6-fluoro-N-(5-fluoro-4-(4-(morpholinosulfonyl)piperidin-1-yl)pyridin-3-yl)pyrazolo[1,5-a]pyrimidine-3-carboxamide]",+++ (Cisplatin sensitization value of <0.02 μM)
19,"N#CCc1cnc2c(C(=O)Nc3cnccc3N3CCC(N)CC3)c(N)nn2c1 [I-N-2, 2-amino-N-(4-(4-aminopiperidin-1-yl)pyridin-3-yl)-6-(cyanomethyl)pyrazolo[1,5-a]pyrimidine-3-carboxamide]",+++ (Cisplatin sensitization value of <0.02 μM)
20,"COc1cncc(NC(=O)c2c(N)nn3cc(F)cnc23)c1-c1cncn1C [I-C-81, 2-amino-6-fluoro-N-(5-methoxy-4-(1-methyl-1H-imidazol-5-yl)pyridin-3-yl)pyrazolo[1,5-a]pyrimidine-3-carboxamide]",+++ (Cisplatin sensitization value of <0.02 μM)
21,"Nc1nn2cc(F)cnc2c1C(=O)Nc1cnccc1N1CC(=O)N2CCCC2C1 (stereo not drawn) [I-N-222, 2-amino-6-fluoro-N-(4-(4-oxohexahydropyrrolo[1,2-a]pyrazin-2(1H)-yl)pyridin-3-yl)pyrazolo[1,5-a]pyrimidine-3-carboxamide]",++ (Cisplatin sensitization value>0.02 μM but <0.2 μM)
22,"CC(C)(C)NC(=O)C1CCN(c2c(F)cncc2NC(=O)c2c(N)nn3cc(F)cnc23)CC1 [I-G-19, 2-amino-N-(4-(4-(tert-butylcarbamoyl)piperidin-1-yl)-5-fluoropyridin-3-yl)-6-fluoropyrazolo[1,5-a]pyrimidine-3-carboxamide]",++ (Cisplatin sensitization value>0.02 μM but <0.2 μM)
23,"Cc1ccn(-c2ccncc2NC(=O)c2c(N)nn3cc(F)cnc23)n1 [I-N-225, 2-amino-6-fluoro-N-(4-(3-methyl-1H-pyrazol-1-yl)pyridin-3-yl)pyrazolo[1,5-a]pyrimidine-3-carboxamide]",++ (Cisplatin sensitization value>0.02 μM but <0.2 μM)
24,"Cc1cncnc1-c1ccncc1NC(=O)c1c(N)nn2cc(F)cnc12 [I-C-67, 2-amino-6-fluoro-N-(4-(5-methylpyrimidin-4-yl)pyridin-3-yl)pyrazolo[1,5-a]pyrimidine-3-carboxamide]",++ (Cisplatin sensitization value>0.02 μM but <0.2 μM)
25,"Nc1nn2cc(F)cnc2c1C(=O)Nc1cnccc1N1CCN2C(=O)CCCC2C1 (stereo not drawn) [I-N-244, 2-amino-6-fluoro-N-(4-(6-oxohexahydro-1H-pyrido[1,2-a]pyrazin-2(6H)-yl)pyridin-3-yl)pyrazolo[1,5-a]pyrimidine-3-carboxamide]",+++ (Cisplatin sensitization value of <0.02 μM)
26,"Nc1nn2cc(F)cnc2c1C(=O)Nc1cncc(F)c1N1CCN(C(=O)CN2CCC2)CC1 [I-N-160, 2-amino-N-(4-(4-(2-(azetidin-1-yl)acetyl)piperazin-1-yl)-5-fluoropyridin-3-yl)-6-fluoropyrazolo[1,5-a]pyrimidine-3-carboxamide]",+++ (Cisplatin sensitization value of <0.02 μM)
27,"Nc1nn2cc(F)cnc2c1C(=O)Nc1cncc(F)c1N1CCC(c2nccs2)CC1 [I-N-184, 2-amino-6-fluoro-N-(5-fluoro-4-(4-(thiazol-2-yl)piperidin-1-yl)pyridin-3-yl)pyrazolo[1,5-a]pyrimidine-3-carboxamide]",++ (Cisplatin sensitization value>0.02 μM but <0.2 μM)
28,"Nc1nn2cc(F)cnc2c1C(=O)Nc1cnccc1-c1ccncc1 [I-C-24, N-([4,4′-bipyridin]-3-yl)-2-amino-6-fluoropyrazolo[1,5-a]pyrimidine-3-carboxamide]",+++ (Cisplatin sensitization value of <0.02 μM)
29,"N#CCc1cnc2c(C(=O)Nc3cnccc3OCCO)c(N)nn2c1 [I-O-33, 2-amino-6-(cyanomethyl)-N-(4-(2-hydroxyethoxy)pyridin-3-yl)pyrazolo[1,5-a]pyrimidine-3-carboxamide]",++ (Cisplatin sensitization value>0.02 μM but <0.2 μM)
30,"Cc1nncn1-c1ccncc1NC(=O)c1c(N)nn2cc(F)cnc12 [I-N-263, 2-amino-6-fluoro-N-(4-(3-methyl-4H-1,2,4-triazol-4-yl)pyridin-3-yl)pyrazolo[1,5-a]pyrimidine-3-carboxamide]",+ (Cisplatin sensitization value>0.2 μM but <5 μM)
